# Experimental data published in the supplement of paper PMC10307832.
# Key:
# Assay in all cases: relative viability (nuclei count vs DMSO), 5 days (fraction); higher = more cells survive
# [1] = compound: CC(C)C[C@H](NC(=O)[C@H](Cc1ccccc1)NC(=O)c1cnccn1)B(O)O [Bortezomib] + CC1(C)CCC(c2ccc(Cl)cc2)=C(CN2CCN(c3ccc(C(=O)NS(=O)(=O)c4ccc(N[C@H](CCN5CCOCC5)CSc5ccccc5)c(S(=O)(=O)C(F)(F)F)c4)cc3)CC2)C1 [Navitoclax] (partner 0.5 µM)
# How it was run: (§1)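 Relative viability divides the nuclei count in treated wells by that in vehicle wells. Lung cancer cell lines were seeded in 1536-well plates, dosed by pin tool the next day, and fixed and stained after 5 days in one step with final 0.05% Triton X-100, 1% formaldehyde and 1 ug/ml Hoechst. Dosing was a single drug or a fixed anchor-drug dose plus five library-drug doses (not always all listed) in √10 steps, and values are medians of duplicate plates imaged at 4×.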
# [2] = compound: CC1=CC(=NN1)NC2=CC(=NC(=N2)/C=C/C3=CC=CC=C3)N4CCN(CC4)C + Cc1nc(NC(=O)N2CCC[C@H]2C(N)=O)sc1-c1ccnc(C(C)(C)C(F)(F)F)c1 [Alpelisib] (partner 2 µM)
# How it was run: as §1
# [3] = compound: COC1=CC(c2cc3ccccc3[nH]2)=N/C1=C\c1[nH]c(C)cc1C [Obatoclax] + CS(=O)(=O)N1CCN(Cc2cc3nc(-c4cccc5[nH]ncc45)nc(N4CCOCC4)c3s2)CC1 [Pictilisib] (partner 1 µM)
# How it was run: as §1
# [4] = compound: CC(C)C[C@H](NC(=O)[C@H](Cc1ccccc1)NC(=O)c1cnccn1)B(O)O [Bortezomib] + CCNC(=O)c1noc(-c2cc(C(C)C)c(O)cc2O)c1-c1ccc(CN2CCOCC2)cc1 [Luminespib] (partner 0.01 µM)
# How it was run: as §1
Cell Line,relative viability ([1]; first compound 0.0002 µM),relative viability ([1]; first compound 0.000632 µM),relative viability ([1]; first compound 0.002 µM),relative viability ([1]; first compound 0.006325 µM),relative viability ([1]; first compound 0.02 µM),relative viability ([2]; first compound 0.08 µM),relative viability ([2]; first compound 0.8 µM),relative viability ([2]; first compound 2.53 µM),relative viability ([2]; first compound 8 µM),relative viability ([3]; first compound 0.01 µM),relative viability ([3]; first compound 0.03162 µM),relative viability ([3]; first compound 0.1 µM),relative viability ([3]; first compound 0.3162 µM),relative viability ([3]; first compound 1 µM),relative viability ([4]; first compound 0.0002 µM),relative viability ([4]; first compound 0.000632 µM),relative viability ([4]; first compound 0.002 µM),relative viability ([4]; first compound 0.006325 µM),relative viability ([4]; first compound 0.02 µM),relative viability ([2]; first compound 0.253 µM)
NCI-H1993,0.94,0.982,1.01,0.52,0.48,0.63,0.581,0.61,0.493,0.804,0.833,0.842,1.02,0.733,0.799,0.807,0.991,0.428,0.4,
LOU-NH91,0.697,0.543,0.254,0.187,0.201,0.68,0.762,0.61,0.404,0.541,0.503,0.505,0.469,0.533,0.352,0.312,0.279,0.252,0.231,0.816
SK-MES-1,1.24,1.28,1.22,0.198,0.146,0.882,0.958,0.623,0.131,0.393,0.379,0.392,0.402,0.268,0.801,0.763,0.72,0.166,0.156,0.853
LCLC-103H,,,,,,0.917,1.07,0.804,0.441,0.602,0.565,0.719,0.612,0.65,0.902,0.955,0.495,0.175,0.152,1.01
NCI-H1915,0.676,0.764,0.799,0.0915,0.0811,1.07,0.977,0.806,0.324,0.967,0.823,0.968,0.989,0.933,0.724,0.732,0.721,0.0571,0.0533,1.07
IA-LM,1.07,0.865,0.994,0.0167,0.0073,0.737,0.782,0.461,0.221,0.345,0.326,0.315,0.113,0.0716,,,,,,0.799
NCI-H1734,0.86,0.872,0.662,0.112,0.0892,0.601,0.692,0.375,0.189,0.466,0.457,,0.361,0.229,0.181,0.186,0.178,0.129,0.101,0.695
NCI-H2170,0.425,0.548,0.6,0.169,0.172,0.765,0.668,0.494,0.147,0.369,0.278,0.316,0.334,0.295,0.46,0.534,0.744,0.516,0.202,0.861
Calu-6,0.749,0.882,0.69,0.0841,0.0734,1.01,0.661,0.134,0.117,0.91,0.963,0.731,0.491,0.105,,,,,,0.973
HCC-366,0.945,1.03,1.04,0.949,0.0281,0.376,0.363,0.0741,0.0115,0.136,0.151,0.172,0.159,0.12,,,,,,0.646
NCI-H1650,1.17,1.17,0.191,0.119,0.106,,,,,0.572,0.749,0.571,0.412,0.315,0.186,0.185,0.177,0.203,0.217,
NCI-H661,,,,,,0.578,0.94,0.455,0.197,0.392,0.363,0.33,,0.451,0.928,0.858,0.921,0.4,0.151,0.749
NCI-H358,,,,,,0.934,0.539,0.142,0.153,0.322,0.297,0.261,0.288,0.23,0.285,,0.349,0.307,0.0995,0.821
NCI-H1623,,,,,,,,,,,,,,,0.498,0.496,0.551,0.364,0.277,
NCI-H1299,0.981,0.988,1.01,0.397,0.142,1.06,1.04,1.1,0.605,0.74,0.937,0.637,0.447,0.129,,,,,,1.08
NCI-H522,,,,,,,,,,,,,,,0.983,0.97,0.959,0.745,0.367,
NCI-H2342,,,,,,,,,,,,,,,1.01,0.748,0.699,0.791,0.382,
SW 900,,,,,,,,,,,,,,,0.167,0.198,0.184,0.163,0.16,
NCI-H1703,1.21,1.01,0.188,0.139,0.085,0.302,0.205,0.128,0.0994,0.263,0.221,0.216,0.203,0.2,,,,,,0.32
ABC-1,,,,,,1.01,1.02,0.855,0.22,0.72,0.929,0.737,0.468,0.26,0.439,0.523,0.262,0.252,0.227,1.09
ChaGo-K-1,,,0.964,0.307,0.2,,,,,0.77,0.504,,0.675,0.877,0.577,0.554,0.683,0.356,0.169,
